From PubChem BioAssay (NCI)
Values joined by “and” are separate entries in the source; they are usually repeats but may differ in a detail not shown here. Equal values may be shown once.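 Results reflect a 48-hour exposure of cells in 96-well plates to compound at five concentrations. GI50 is the concentration that inhibits growth by half. TGI: total growth inhibition.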

How the values were obtained:
Experiment in all cases: DTP human tumour cell line panel, 48 h
[1] = system: LOX IMVI melanoma
[2] = system: NCI-H460 lung
[3] = system: HOP-62 NSCLC
[4] = system: EKVX NSCLC
[5] = system: MDA-MB-231 breast
[6] = system: OVCAR-4 ovarian
[7] = system: MOLT-4 leukemia
[8] = system: 786-0 renal
[9] = system: UO-31 renal
[10] = system: SK-MEL-2 melanoma

Row | SMILES | GI50 [1] | TGI [1] | GI50 [2] | TGI [2] | GI50 [3] | TGI [3] | GI50 [4] | TGI [4] | GI50 [5] | TGI [5] | GI50 [6] | TGI [6] | GI50 [7] | TGI [7] | GI50 [8] | TGI [8] | GI50 [9] | TGI [9] | GI50 [10] | TGI [10]
1 | C=CC(=O)Nc1cc(N2CCN(CC)CC2)ccc1Nc1cc(N(C)C(=O)Nc2c(Cl)c(OC)cc(OC)c2Cl)ncn1 | 2.82 µM | 11.9 µM | 7.67 µM | 24.7 µM | 11.9 µM | 28.8 µM | 12.4 µM | 35.9 µM | 3.26 µM | 11.5 µM | 5.35 µM | 22.9 µM | 3.01 µM | 13.4 µM | 2.97 µM | 12.1 µM | 8.53 µM | 22.2 µM | 13 µM | 27.3 µM
2 | CCOc1c(N=Nc2ccccc2Cl)c(-c2ccccc2)nn1C(=S)S |  | 46.1 µM |  | > 100 µM |  | > 100 µM |  | > 100 µM |  | 56.5 µM |  | > 100 µM |  | 58.2 µM |  | > 100 µM |  | > 100 µM |  | > 100 µM
3 | Cc1ccc(S(=O)(=O)c2nc(-c3ccccc3)oc2S(C)=O)cc1 (centres undefined) | 1.4 µM | 2.81 µM | 2.92 µM | 8.98 µM | 6.87 µM | 20.3 µM | 1.72 µM | 3.4 µM | 1.47 µM | 2.87 µM | 1.91 µM | 3.65 µM | 2.12 µM | 5.5 µM | 1.44 µM | 2.82 µM | 1.26 µM | 2.53 µM | 1.73 µM | 3.73 µM
4 | COc1ccc(C(=O)NNc2nc(Cl)nc(N3CCN(C(c4ccccc4)c4ccccc4)CC3)n2)cc1 | 1.63 µM | 3.05 µM | 3.52 µM | 11.9 µM | 2.97 µM | 10.7 µM | 3.43 µM | 14.8 µM | 1.94 µM | 3.68 µM | 1.81 µM | 3.56 µM | 1.64 µM | 5.15 µM | 3.37 µM | 12.9 µM | 3.2 µM | 18.5 µM | 2.14 µM | 4.91 µM
5 | CC(C)=CCC(OC(=O)C=C(C)C)C1=CC(=O)c2c(O)ccc(O)c2C1=O (centres undefined) |  | 0.894 µM and 3.07 µM | 5.21 µM | 21.1 µM and 6.53 µM |  | 25.7 µM and 24.4 µM | 2.28 µM | 6.2 µM and 2.2 µM | 1.63 µM | 3.89 µM | 1.73 µM | 4.16 µM and 1.48 µM | 0.182 µM and 0.0424 µM | 1.29 µM and 1.42 µM | 2.59 µM | 6.86 µM | 0.993 µM | 5.49 µM and 7.74 µM | 2.97 µM | 12.1 µM and 5.85 µM
6 | COc1ccc(C(O)c2cc3c(N)c(C(=O)Nc4cccc(Cl)c4)sc3nc2C)cc1 (centres undefined) | 1.71 µM | > 40.7 µM | 1.06 µM | 5.53 µM | 0.617 µM | 19.9 µM | 1.88 µM | > 86.9 µM | 1.41 µM | > 33.1 µM | 2.59 µM | > 51.7 µM | 1.54 µM | > 43.3 µM | 1.67 µM | > 39.6 µM | 2.41 µM | > 56.2 µM | 1.29 µM | 42.7 µM
7 | c1cncc(CNCc2cccnc2)c1 |  | > 100 µM |  | > 100 µM |  | > 100 µM |  | > 100 µM |  | > 100 µM |  | > 100 µM |  | > 100 µM |  | > 100 µM |  | > 100 µM |  | > 100 µM
8 | COc1cc(C)c(C2NC(=O)c3ccccc3N2)cc1C (centres undefined) |  | 97.9 µM |  | 26.5 µM |  | > 97.1 µM |  | > 100 µM |  | > 85.7 µM |  | > 82.9 µM |  | 35.8 µM |  | > 100 µM |  | > 100 µM |  | 0.924 µM
9 | C1=C2CCCC3=Cc4ccccc4OC23Oc2ccccc21 | 3.88 µM | 28 µM | 3.47 µM | 16.4 µM | 3.8 µM | > 100 µM | 5.49 µM | > 100 µM | 4.23 µM | 45.5 µM | 6.12 µM | > 100 µM | 3.66 µM | > 100 µM | 6.41 µM | > 100 µM | 4.86 µM | > 100 µM | 4.31 µM | 25.6 µM
10 | CCCCCCCCNCCC[C@@H](C)[C@H]1CC[C@H]2[C@@H]3[C@H](OCCCN)C[C@H]4C[C@H](OCCCN)CC[C@]4(C)[C@H]3C[C@H](OCCCN)[C@]12C | 1.57 µM | 3.54 µM |  | > 19.8 µM | 1.53 µM | 7.16 µM | 2.01 µM | 6.65 µM | 0.983 µM | 7.11 µM | 8.27 µM | 29.4 µM | 3.12 µM | 9.69 µM | 1.21 µM | 3.3 µM | 1.49 µM | 3.72 µM | 3.75 µM | > 31.3 µM
11 | O=C(c1ccccc1)c1c(NCC(O)CN2CCOCC2)n(Cc2ccccc2)c(=O)n(Cc2ccccc2)c1=O (centres undefined) | 38.6 µM | > 100 µM | 42.9 µM | > 100 µM | 96.9 µM | > 100 µM | > 48.6 µM | > 90.8 µM | 28.8 µM | > 100 µM | > 45.4 µM | > 95.3 µM | 32.4 µM | > 95.5 µM | 54.1 µM | > 100 µM | 34.5 µM | > 100 µM | > 66.4 µM | > 100 µM
12 | Cc1c2cc(Cl)c3ccccc3c2c[n+]2ccccc12 | 15 µM | 38.9 µM | 4.12 µM | 16.9 µM | 2.24 µM | 16.1 µM | 2.46 µM | > 100 µM | 11.9 µM | 39.8 µM | 2.71 µM | 17.5 µM | 4.5 µM | 34.9 µM | 4.11 µM | 33 µM | 9.18 µM | > 100 µM | 3.58 µM | 11.5 µM
13 | O=C(NCCc1ccccn1)OCc1nc2nc(Cl)nc(N3CCOCC3)c2[nH]1 | 0.372 µM | 1.61 µM | 3.12 µM | 11.1 µM | 2.37 µM | 12.6 µM | 2.93 µM | 11.3 µM | 1.6 µM | 3.17 µM | 1.7 µM | 3.85 µM | 3 µM | 9.5 µM | 1.75 µM | 3.52 µM | 1.28 µM | 2.55 µM | 4.16 µM | 15.6 µM
14 | CC1=Nc2ccccc2/C1=C\c1c(C)[nH]c2ccccc12 |  | 62.4 µM |  | 44.6 µM |  | 69.7 µM |  | 29.7 µM |  | 33.3 µM |  | 47.1 µM |  | 40.2 µM |  | 25.8 µM |  | 27.5 µM |  | 47.3 µM
15 | Cc1c(-c2ccnc(N)n2)c2c(n1Cc1ccccc1)C(=O)c1ccccc1C2=O | 1.98 µM | 6.65 µM | 6.42 µM | 26.5 µM | 13.9 µM | 43.6 µM | 7.11 µM | 41.2 µM | 1.73 µM | 30.2 µM | 20.7 µM | > 100 µM |  |  | 5.02 µM | 71 µM | 3.28 µM | 21.8 µM | 11.3 µM | 47.7 µM
16 | O=C([O][Sn]([O]C(=O)c1ccccn1)([c]1ccccc1)[c]1ccccc1)c1ccccn1 | 1.4 µM | 2.7 µM | 12.2 µM | 26.2 µM | 16.5 µM | 31.5 µM | 13.7 µM | 26.9 µM | 5.29 µM | 18.4 µM | 7.53 µM | 20.3 µM |  |  | 5.14 µM | 16.8 µM | 2.05 µM | 4.66 µM | 2.57 µM | 6.26 µM
17 | O=C(Oc1ccc(CO[N+](=O)[O-])cc1)c1ccccc1 | 0.163 µM | 0.316 µM | 0.239 µM | 1.09 µM | 0.161 µM | 0.316 µM | 0.407 µM | 1.59 µM | 0.144 µM | 0.306 µM | 0.18 µM | 0.381 µM |  |  | 0.0945 µM | 0.235 µM | 0.172 µM | 0.322 µM | 0.162 µM | 0.322 µM
18 | c1ccc2c(c1)SCCCSCCSCCCS2 |  | > 100 µM |  | > 100 µM |  | > 100 µM |  | > 100 µM |  | > 100 µM |  | > 100 µM |  | > 100 µM |  | > 100 µM |  | > 100 µM |  | 
19 | O=C(Nn1c(-c2ccccc2)nc2ccccc2c1=O)c1ccccc1O |  | > 100 µM |  | > 100 µM |  | > 100 µM |  | > 100 µM |  | > 100 µM |  | > 100 µM |  | > 100 µM |  | > 100 µM |  | > 100 µM |  | 
20 | COc1ncnc(S(=O)(=O)c2ccc(N=C3C(=O)N(CN4CCN(c5cc6c(cc5F)c(=O)c(C(=O)O)cn6C5CC5)CC4)c4ccc(Cl)cc43)cc2)c1OC | 23.8 µM | > 50 µM | 37.4 µM | > 50 µM | 31.6 µM | > 50 µM | 1.24 µM | > 50 µM | 28.5 µM | > 50 µM |  |  | 24.9 µM | > 50 µM | 33.7 µM | > 50 µM | 47.2 µM | > 50 µM | > 50 µM | > 50 µM
21 | CC(C)(C)OC(=O)NCCCn1c2c(c3ccccc3c1=O)C(=O)c1ccccc1-2 | 6.98 µM | 43 µM | 33.9 µM | > 100 µM | 11.8 µM | 31.3 µM | 38.9 µM | > 100 µM | 12.9 µM | 48.8 µM |  |  | > 100 µM | > 100 µM | 15.1 µM | 41.6 µM | 71.5 µM | > 100 µM | 49.3 µM | > 100 µM
22 | COC(=O)C1=C(C(=O)OC)C2(C)C=CC1O2 (centres undefined) |  | 34.5 µM |  | > 100 µM |  | > 100 µM |  | 41.3 µM |  | 31 µM |  | 27.2 µM |  |  |  | 14.4 µM |  | 17.6 µM |  | 43.8 µM
